Experimental data from paper PMC11173382, “In Vitro Investigations into the Potential Drug Interactions of Pseudoginsenoside DQ Mediated by Cytochrome P450 and Human Drug Transporters” (Molecules, 2024).

Assays:
[1] = cited from earlier work
hOAT3 = biological target: T1, hOAT3 (Homo sapiens, UniProt Q8TCC7); test: Substrates uptake assay, S2-OAT3 cells (3H-ES); assay type: in vitro ADME; conditions: for Transport activity of OAT3 (main text: percentage inhibition): negative control = 100%
T1 sequence (Q8TCC7 1-542): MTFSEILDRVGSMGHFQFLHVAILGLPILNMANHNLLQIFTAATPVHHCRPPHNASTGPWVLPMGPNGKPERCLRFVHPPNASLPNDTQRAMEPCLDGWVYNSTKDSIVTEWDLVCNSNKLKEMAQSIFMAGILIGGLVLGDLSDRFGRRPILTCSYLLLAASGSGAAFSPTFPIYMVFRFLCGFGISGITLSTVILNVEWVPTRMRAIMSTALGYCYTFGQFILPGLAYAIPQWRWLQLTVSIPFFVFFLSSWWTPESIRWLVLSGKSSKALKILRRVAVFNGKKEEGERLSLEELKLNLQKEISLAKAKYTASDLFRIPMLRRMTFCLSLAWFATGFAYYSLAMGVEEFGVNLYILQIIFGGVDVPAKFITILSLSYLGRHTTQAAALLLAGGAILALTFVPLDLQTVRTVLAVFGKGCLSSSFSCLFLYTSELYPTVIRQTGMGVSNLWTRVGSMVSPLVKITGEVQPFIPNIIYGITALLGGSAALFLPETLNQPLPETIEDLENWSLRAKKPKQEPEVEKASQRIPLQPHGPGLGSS
Source text: Drug transporters mediate the cellular uptake and efflux of their substrates. Therefore, cell lines overexpressing a drug transporter can be utilized to investigate inhibitors of the transporter by assessing changes in substrate uptake. For each drug transporter, we selected a well-characterized inhibitor as the positive control. Radiolabeled substrates were used to indicate the decrease in transport efficiency when the drug transporters were inhibited by PDQ or the control inhibitors.
The concentrations of the control drugs and the substrates were stated in the assay details. Working solutions of the control inhibitors, the radiolabeled substrates, and each dose of PDQ were prepared at 200 times (200×) more concentrated solutions with DMSO for further dilution.
Transporter-overexpressed cell lines. Human organic anion transporter-overexpressed cell lines MDCKII-OAT1 and S2-OAT3, human organic anion transport polypeptide-overexpressed cell lines HEK293A-OATP1B1 and HEK293A-OATP1B3, human organic cation transporter 2-overexpressed cell line S2-OCT2, and human multi-drug resistance protein MDR1 (or P-gp)-overexpressed cell line MDCKII-MDR1 were gifts from Japan Fuji Biomedical Co., Ltd. (Fuji, Shizuoka Prefecture, Japan). Breast cancer resistance protein-overexpressed vesicles (sf9-BCRP vesicle) were purchased from GenoMembrane Co., Ltd. (Yokohama, Kanagawa, Japan).
Substrates uptake assay. In this assay, we studied the inhibition of PDQ against transporters OAT1, OAT3, OCT2, OATP1B1 and OATP1B3 with MDCKII-OAT1, S2-OAT3, S2-OCT2, HEK293A-OATP1B1and HEK293A-OATP1B3 cells, respectively. The radiolabeled substrates for OAT1, OAT3, OATP1B1, OATP1B3 and OCT2 were […], respectively (Table 5). Probenecid ([…]) was the positive control inhibitor of OAT1 and OAT3, while rifampicin ([…]) served as the control drug of OATP1B1 and OATP1B3. For OCT2, we used […] cimetidine to compare with the inhibitory effect of PDQ. Two times (2×) more concentrated working solutions of the drugs and the substrate were prepared with Dulbecco’s phosphate-buffered saline (DPBS, Gibco, Grand Island, NY, USA.). Then, an equal volume of 2× drug solution and 2× radiolabeled substrate solution were mixed as the working mix. All reagents were pre-warmed to 37 °C.
The cells were digested with 0.05% trypsin/EDTA. The density of the single-cell suspension was adjusted to 2.0 × 10^5 cells/mL for S2 cells and to 1.5 × 10^5 cells/mL for MDCK II and HEK293A cells. The cell suspension was then added to the reservoirs of the 24-well plate for culture until full confluency. The medium in the wells was removed, and the wells were washed with DPBS. Then, the plate was incubated for 10 min with pre-warmed DPBS in the wells. After removing DPBS, […] of working mix was added to each well to initiate the substrate uptake process. The reaction time was 5 min for S2-OCT2 cells, while the other four types of cells were incubated with the reaction mix for 2 min. Cold DPBS was used to terminate the substrate transportation. To each well, […] NaOH ([…]) was added to lyse the cells. Then, […] cell lysate was transferred to the counting vials, and 3 mL scintillation cocktail (Aquasol-2, PerkinElmer, Waltham, MA, USA) was added. […] Each sample was replicated three times (N = 3).
In = [100 × (U − U0)/(Uc − U0)]%(3)
The results were expressed as mean ± standard deviation (SD) and analyzed with GraphPad Prism 8.0 software (CA, USA). The IC50 of PDQ was curve-fitted with the FORECAST function. Statistical significance was calculated using a two-tailed test, and a p value < 0.05 was considered as significant.

**Q.** What does the source list for CC(C)(O)[C@@H]1CC[C@@](C)([C@H]2CC[C@]3(C)[C@@H]2[C@H](O)C[C@@H]2[C@@]4(C)CC[C@H](O)C(C)(C)[C@@H]4CC[C@]23C)O1 [PDQ, (20S,24S)-dammar-20,24-epoxy-3β, 12β, 25-triol]?
**A.** bioavailability ([1]; PDQ in gattate pills): 62.13%; biological half-time (t1/2) ([1]; rat plasma): 5.97 ± 0.43 h; concentration at peak (Cmax) ([1]; rat plasma): 3265.12 ± 700.26 ng/mL; time to peak (Tmax) ([1]; rat plasma): 4.0 ± 0.0 h; Cmax ([1]; rats, effective oral dosage 15 mg/kg, no reference given, read-out: peak concentration (Cmax)): 6.5 µM; cumulative amount excreted through feces ([1]; rats, over 96 h): 55.39%; long-term accumulation in tissues ([1]; rats, single oral dose of 30.0 mg/kg): no long-term accumulation; DPM (3H-ES uptake by OAT3) (hOAT3; inhibitor 0.1 μM): 7893.7±359.2 DPM; Transport activity of OAT3 (main text: percentage inhibition) (hOAT3; inhibitor 0.1 μM): 99.5±4.5%; DPM (3H-ES uptake by OAT3) (hOAT3; inhibitor 0.3 μM): 7623.7±652.1 DPM; Transport activity of OAT3 (main text: percentage inhibition) (hOAT3; inhibitor 0.3 μM): 96.1±8.2%; DPM (3H-ES uptake by OAT3) (hOAT3; inhibitor 1 μM): 7285.3±273.2 DPM; Transport activity of OAT3 (main text: percentage inhibition) (hOAT3; inhibitor 1 μM): 91.8±3.4%; DPM (3H-ES uptake by OAT3) (hOAT3; inhibitor 3 μM): 7192.7±157.6 DPM; Transport activity of OAT3 (main text: percentage inhibition) (hOAT3; inhibitor 3 μM): 90.6±2.0%; DPM (3H-ES uptake by OAT3) (hOAT3; inhibitor 10 μM): 4919.0±360.3 DPM; Transport activity of OAT3 (main text: percentage inhibition) (hOAT3; inhibitor 10 μM): 62.0±4.5%; DPM (3H-ES uptake by OAT3) (hOAT3; inhibitor 30 μM): 4541.3±532.8 DPM
